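Test compounds were applied to cells in 96-well plates for 48 hours at 5 doses. GI50 marks 50% less growth.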 The source made the active and inactive calls. No stated cut-off is given here; in the data, active = GI50 up to about 1.1 µM and inactive = higher.
How the values were obtained:
Assay in all cases: NCI-60 cell line screen, 48 h
SNB-75 = test system: SNB-75
NCI-H460 = test system: NCI-H460
NCI-H23 = test system: NCI-H23
CCRF-CEM = test system: CCRF-CEM
SK-OV-3 = test system: SK-OV-3
SF-268 = test system: SF-268
ACHN = test system: ACHN
MOLT-4 = test system: MOLT-4
HOP-62 = test system: HOP-62
RXF 393 = test system: RXF 393
A498 = test system: A498
OVCAR-8 = test system: OVCAR-8
786-0 = test system: 786-0
M14 = test system: M14
HCT-15 = test system: HCT-15
SK-MEL-2 = test system: SK-MEL-2
SN12C = test system: SN12C
PC-3 = test system: PC-3
MDA-MB-231 = test system: MDA-MB-231

| SMILES | GI50 (SNB-75) | GI50 (NCI-H460) | GI50 (NCI-H23) | GI50 (CCRF-CEM) | GI50 (SK-OV-3) | GI50 (SF-268) | GI50 (ACHN) | GI50 (MOLT-4) | GI50 (HOP-62) | GI50 (RXF 393) | GI50 (A498) | GI50 (OVCAR-8) | GI50 (786-0) | GI50 (M14) | GI50 (HCT-15) [µM] | GI50 (SK-MEL-2) | GI50 (SN12C) | GI50 (PC-3) | GI50 (MDA-MB-231) |
| --- | --- | --- | --- | --- | --- | --- | --- | --- | --- | --- | --- | --- | --- | --- | --- | --- | --- | --- | --- |
| O=C1/C(=C/c2cccc([N+](=O)[O-])c2)COc2ccccc21 | 13.1 µM (inactive) | 15.6 µM (inactive) | 6.76 µM (inactive) | 1.53 µM (inactive) | 30.2 µM (inactive) | 8.99 µM (inactive) | 5.13 µM (inactive) | 2.31 µM (inactive) | 11 µM (inactive) | 4.65 µM (inactive) | 40.8 µM (inactive) | 2.84 µM (inactive) | 1.63 µM (inactive) | 1.83 µM (inactive) | 1.55 | 6.1 µM (inactive) |  |  |  |
| Cc1cc(N(CCC#N)CCC#N)ccc1/N=N/c1ccc([N+](=O)[O-])cc1 | > 10 µM (inactive) | 39.4 µM (inactive) | 43 µM (inactive) | > 100 µM (inactive) | > 10 µM (inactive) | > 100 µM (inactive) | 95.9 µM (inactive) | > 100 µM (inactive) | > 100 µM (inactive) | 32.5 µM (inactive) | > 100 µM (inactive) | 23 µM (inactive) | 43 µM (inactive) | > 100 µM (inactive) | 39.4 | > 100 µM (inactive) | 65.8 µM (inactive) |  |  |
| CCOc1ccc(/N=N/c2ccc(-c3ccc(/N=N/c4c(O)ccc5cc(S(=O)(=O)O)cc(S(=O)(=O)O)c45)cc3)cc2)cc1 |  | > 100 µM (inactive) | > 100 µM (inactive) | > 100 µM (inactive) | > 100 µM (inactive) | > 100 µM (inactive) | > 100 µM (inactive) | > 100 µM (inactive) | > 100 µM (inactive) | > 100 µM (inactive) |  | > 100 µM (inactive) | > 100 µM (inactive) | > 100 µM (inactive) | 86.5 | > 100 µM (inactive) |  | > 100 µM (inactive) | > 100 µM (inactive) |
| CCOC(=O)C1=C(Nc2ccc(NC3=C(C(=O)OCC)C(=O)CS3)cc2)SCC1=O | 16.6 µM (inactive) | 30.1 µM (inactive) | 10 µM (inactive) | 29.8 µM (inactive) | 30 µM (inactive) | 22 µM (inactive) | 22 µM (inactive) |  | 34 µM (inactive) | 16 µM (inactive) | 20.5 µM (inactive) | 27 µM (inactive) | 14.6 µM (inactive) | 20.4 µM (inactive) | 18.5 | 16.5 µM (inactive) | 19.5 µM (inactive) |  |  |
| COc1cc(Br)cc2c1O[C@H]1C(=O)CC3CC21CCN3C (stereo partly specified) |  |  | 24.3 µM (inactive) | 4.09 µM (inactive) | > 100 µM (inactive) | 80 µM (inactive) | 57.1 µM (inactive) | 25 µM (inactive) | > 100 µM (inactive) |  | > 100 µM (inactive) | 19.7 µM (inactive) | 51.6 µM (inactive) | > 100 µM (inactive) | 54.1 | > 100 µM (inactive) |  | 64 µM (inactive) |  |
| O=C1N2Cc3c4ccc5c3CN3C(=O)N6Cc7c(ccc(c7CN1C6(c1ccccc1)C23c1ccccc1)OCCOCCNCCOCCO4)OCCOCCNCCOCCO5 (stereo unspecified) | > 100 µM (inactive) | 30.5 µM (inactive) | 70.5 µM (inactive) | 23.2 µM (inactive) | 85.9 µM (inactive) | > 100 µM (inactive) | 22.5 µM (inactive) | 19.7 µM (inactive) | > 100 µM (inactive) | 33.2 µM (inactive) | > 100 µM (inactive) | 65 µM (inactive) | 31.5 µM (inactive) | 21.8 µM (inactive) | 28.3 | 59.7 µM (inactive) | 19.5 µM (inactive) |  |  |
| Cn1c(=O)c2c(ncn2CCNC(CO)C(O)c2ccc([N+](=O)[O-])cc2)n(C)c1=O (stereo unspecified) |  | > 100 µM (inactive) | > 100 µM (inactive) | > 100 µM (inactive) | > 100 µM (inactive) | > 100 µM (inactive) | > 100 µM (inactive) | > 100 µM (inactive) | > 100 µM (inactive) |  | > 100 µM (inactive) | > 100 µM (inactive) | > 100 µM (inactive) | > 100 µM (inactive) | > 100 | > 100 µM (inactive) | > 100 µM (inactive) | > 100 µM (inactive) | > 100 µM (inactive) |
| CCN(C(=N)C#N)c1ccccc1 | > 100 µM (inactive) | > 63.8 µM (inactive) | > 100 µM (inactive) | > 54.5 µM (inactive) | > 100 µM (inactive) | > 100 µM (inactive) | > 100 µM (inactive) | > 100 µM (inactive) | > 100 µM (inactive) | > 100 µM (inactive) | > 100 µM (inactive) | > 100 µM (inactive) | > 41.9 µM (inactive) | > 100 µM (inactive) | > 45.4 | > 100 µM (inactive) | > 100 µM (inactive) |  |  |
| NC1(C(=O)O)CCC(C(=O)O)CC1 (stereo unspecified) | > 100 µM (inactive) | > 100 µM (inactive) | > 100 µM (inactive) | > 100 µM (inactive) | > 100 µM (inactive) | > 100 µM (inactive) | > 100 µM (inactive) | > 100 µM (inactive) | > 100 µM (inactive) | > 100 µM (inactive) | > 100 µM (inactive) | > 100 µM (inactive) | > 100 µM (inactive) | > 100 µM (inactive) |  | > 100 µM (inactive) | > 100 µM (inactive) |  |  |
| O=c1c2ccccc2nc2n1-c1ccccc1SC2 | 17.7 µM (inactive) | 40.2 µM (inactive) | 38.1 µM (inactive) | 38.8 µM (inactive) | > 100 µM (inactive) | 60 µM (inactive) | 54.7 µM (inactive) | 21.4 µM (inactive) | > 100 µM (inactive) | 58.3 µM (inactive) | 47.9 µM (inactive) | 38 µM (inactive) | > 100 µM (inactive) | 50.5 µM (inactive) | 54.1 | > 100 µM (inactive) | 51.2 µM (inactive) |  |  |
| C=CC1(C)/C(=N\O)C(C)(CC)C(=O)N1O (stereo unspecified) | > 100 µM (inactive) | > 100 µM (inactive) | > 100 µM (inactive) | > 100 µM (inactive) | > 100 µM (inactive) | > 100 µM (inactive) | > 100 µM (inactive) | > 100 µM (inactive) | > 100 µM (inactive) | > 100 µM (inactive) | > 100 µM (inactive) | > 100 µM (inactive) | > 100 µM (inactive) | > 100 µM (inactive) | > 100 | > 100 µM (inactive) | > 100 µM (inactive) |  |  |
| Cc1cc(C2CCCCC2)n(O)c(=O)c1 [CICLOPIROX OLAMINE] | 5.46 µM (inactive) | 2.32 µM (inactive) | 9.08 µM (inactive) | 1.1 µM (active) | 47 µM (inactive) | 4.25 µM (inactive) | 3.97 µM (inactive) | 1.93 µM (inactive) |  | 16.5 µM (inactive) | 14.7 µM (inactive) | 3.22 µM (inactive) | 9.48 µM (inactive) | 14.2 µM (inactive) | 4.39 | 21.3 µM (inactive) | 12.5 µM (inactive) |  |  |
